Reference: patent US7511068B2, “Mercaptoimidazoles as CCR2 receptor antagonists” (Janssen Pharmaceutica, N.V., priority 2003, dated 2009)

Target: T1, CCR2 receptor (Homo sapiens, UniProt P41597)
T1 construct: host or cells: THP-1 human monocytic cell line
T1 sequence (P41597 1-360 isoform P41597-2): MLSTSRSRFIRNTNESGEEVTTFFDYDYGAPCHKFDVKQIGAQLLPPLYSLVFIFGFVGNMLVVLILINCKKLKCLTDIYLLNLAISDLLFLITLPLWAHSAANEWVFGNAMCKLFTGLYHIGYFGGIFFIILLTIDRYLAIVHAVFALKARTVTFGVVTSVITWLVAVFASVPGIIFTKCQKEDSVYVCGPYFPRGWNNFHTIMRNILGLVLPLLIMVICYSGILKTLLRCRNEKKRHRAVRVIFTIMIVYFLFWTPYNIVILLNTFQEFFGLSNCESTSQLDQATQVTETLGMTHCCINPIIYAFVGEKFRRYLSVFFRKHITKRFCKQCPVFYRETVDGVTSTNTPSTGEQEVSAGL
Test: Inhibition of MCP-1 induced Ca-flux in human THP-1 cells
Assay type: cell-based
Settings: inhibition of specific MCP-1 (10^-7 M hMCP-1) induced Ca2+ flux in human THP-1 cells; pIC50 = -log IC50 (molar)
Protocol: C. Pharmacological Example Inhibition of MCP-1 Induced Ca-flux in Human THP-1 Cells
MCP-1 binding to the CCR2 receptor induces a rapid and transient intracellular release of Ca^2+ (secondary messenger) in several cell lines (Charo et al, PNAS 1994). Free Ca^2+ levels can be measured using a Ca^2+ sensitive dye. When the CCR2 receptor is blocked with a CCR2 receptor antagonist, the MCP-1 induced release of Ca^2+ is inhibited.
Human THP-1 cells (monocytic cell line, ATCC TIB-202) were cultured in RPMI 1640 medium supplemented with 10% fetal calf serum (FCS), 1% L-Glutamine, penicillin (50 U/ml) and streptomycin (50 μg/ml) (all GIBCO BRL, Gent). After centrifugation, cells were loaded for 30 minutes with the Ca^2+ sensitive fluorescent dye Fluo-3 AM (Molecular Probes, Leiden, Netherlands) (2 million cells/ml in RPMI medium containing 4 μM Fluo-3 AM, 20 mM HEPES, 0.1% Bovine Serum Albumin (BSA) and 5 mM probenecid). Excess dye was removed by 3-fold washing with buffer (5 mM HEPES, 140 mM NaCl, 1 mM MgCl2, 5 mM KCl, 10 mM glucose, 2.5 mM probenecid, 1.25 mM CaCl2, 0.1% BSA; all further incubations were done in this buffer). Cells were plated at a density of 150 000 cells/well in dark-wall 96-well plates (Costar, Cambridge, Mass.) and sedimented by centrifugation (1 minute). The cells were pre-incubated for 20 minutes with test compound. Then, 10^−7 M hMCP-1 (Bachem, Bubendorf, Switserland) was added. Changes in intracellular free Ca^2+ concentration were measured using the Fluorescent Imaging Plate Reader (FLIPR, Molecular Devices, Munchen, Germany). Fluorescence was recorded every second from 10 seconds before the addition of the MCP-1 till 2 minutes after the addition (first minute: 60 records with 1 second intervals, second minute 20 records with 3 second intervals).
The maximal fluorescence obtained during this time frame was used for further calculations.
Table 4 reports pIC50 values obtained in the above-described test for compounds of formula (I). pIC50 defines −log IC50 wherein IC50 is the molar concentration of the test compound which inhibits 50% of specific MCP-1 induced Ca^2+ flux.

| SMILES | IC50 |
| --- | --- |
| CCC(c1ccc(Cl)c(Cl)c1)n1c(C(N)=O)cnc1S (centres unmarked) [Compound 59] | 0.0434 µM |
| COC(=O)c1[nH]c(=S)n(Cc2ccc(Cl)c(Cl)c2)c1C(=O)OC [Compound 47] | 0.0355 µM |
| CCC(c1ccc(F)c(F)c1)n1c(C(=O)OC)cnc1S (centres unmarked) [Compound 21] | 1.02 µM |
| CCC(c1ccc(F)c(C(F)(F)F)c1)n1c(S)nc(C(=O)OC)c1C(=O)OC (centres unmarked) [Compound 3] | 0.0174 µM |
| COC(=O)c1[nH]c(=S)n(C(c2ccc(Cl)c(Cl)c2)C2CC2)c1C(=O)OC (centres unmarked) [Compound 4] | 0.0279 µM |
| CCC(c1ccc(Cl)c(Cl)c1)n1c(S)nc(C(N)=O)c1C(=O)OC (centres unmarked) [Compound 86] | 0.0499 µM |
| COC(=O)c1c(C(N)=O)[nH]c(=S)n1C(C)c1ccc(Cl)c(Cl)c1 (centres unmarked) [Compound 90] | 0.133 µM |
| CCC(c1ccc(Br)c(Br)c1)n1c(C(N)=O)c(C(N)=O)[nH]c1=S (centres unmarked) [Compound 57] | 0.168 µM |
| CC(c1ccc(Cl)c(Cl)c1)n1c(C(N)=O)c[nH]c1=S (centres unmarked) [Compound 54] | 1.1 µM |
| CCC(c1ccc(Cl)c(Cl)c1)n1c(C#N)c(C(=O)OC)[nH]c1=S (centres unmarked) [Compound 5] | 0.0398 µM |
| CCC(c1ccc(Cl)c(Cl)c1)n1c(C(=O)NC)cnc1S (centres unmarked) [Compound 34] | 0.219 µM |
| CCC(c1ccc(F)c(F)c1)n1c(C(N)=O)cnc1S (centres unmarked) [Compound 9] | 0.465 µM |
| CCC(c1ccc(Cl)c(Cl)c1)n1c(C(=O)OC)cnc1S (centres unmarked) [Compound 15] | 0.191 µM |
| CCC(c1ccc(F)c(F)c1)n1c(S)nc(C(=O)OC)c1C(=O)OC (centres unmarked) [Compound 39] | 0.00724 µM |
| CCC(c1ccc(F)c(C(F)(F)F)c1)n1c(C(=O)OCCO)cnc1S (centres unmarked) [Compound 61] | 0.229 µM |
| COC(=O)c1[nH]c(=S)n(C(C)c2ccc(Cl)c(Cl)c2)c1C(=O)OC (centres unmarked) [Compound 55] | 0.0126 µM |
| CCCCNC(=O)c1cnc(S)n1C(CC)c1ccc(F)c(F)c1 (centres unmarked) [Compound 44] | 3.13 µM |
| CCCC(c1ccc(Cl)cc1)n1c(C(=O)OC)c[nH]c1=S (centres unmarked) [Compound 25] | 3.55 µM |

More lines, now with the values ahead:

| IC50 | SMILES |
| --- | --- |
| 1.05 µM | CCC(c1ccc(Cl)c(Cl)c1)n1c(C(=O)NNC=O)c[nH]c1=S (centres unmarked) [Compound 120] |
| 2.51 µM | CCC(c1ccc(F)c(F)c1)n1c(C(=O)OC)c(C(=O)OC(C)(C)C)[nH]c1=S (centres unmarked) [Compound 137] |
| 0.343 µM | CCC(c1ccc(C)c(C)c1)n1c(C(=O)OC)c(C(=O)OC)[nH]c1=S (centres unmarked) [Compound 99] |
| 0.112 µM | CCC(c1ccc(Cl)c(Cl)c1)n1c(C(=O)OC)c(C(=O)N2CCCCC2)[nH]c1=S (centres unmarked) [Compound 108] |
| 0.813 µM | CCC(c1ccc(Cl)c(Cl)c1)n1c(S)nc(C(=O)OC(C)(C)C)c1C#N (centres unmarked) [Compound 78] |
| 0.186 µM | CCC(c1ccc(Cl)c(Cl)c1)n1c(C(=O)OC)c(C(=O)NNC(C)=O)[nH]c1=S (centres unmarked) [Compound 96] |
| 1.78 µM | CCC(c1ccc(Cl)c(Cl)c1)n1c(C(=O)NC)c(COC)[nH]c1=S (centres unmarked) [Compound 114] |
| 0.257 µM | CCC(c1ccc(Cl)c(Cl)c1)n1c(C#N)c(C(=O)NC)[nH]c1=S (centres unmarked) [Compound 70] |
| 8.32 µM | CCC(c1cc(F)cc(F)c1)n1c(C(=O)OC)cnc1S (centres unmarked) [Compound 118] |
| 1.02 µM | CCC(c1ccc(Cl)c(Cl)c1)n1cc(C(=O)OCCO)[nH]c1=S (centres unmarked) [Compound 63] |
| 0.355 µM | CCC(c1ccc(Cl)c(Cl)c1)n1c(S)nc(C(=O)NC)c1C(=O)NC (centres unmarked) [Compound 107] |
| 0.176 µM | CCC(c1ccc(Br)c(Br)c1)n1c(C(N)=O)c[nH]c1=S (centres unmarked) [Compound 138] |
| 1.2 µM | CCC(c1ccc(Cl)c(Cl)c1)n1c(C(=O)NCCO)c(COC)[nH]c1=S (centres unmarked) [Compound 115] |

Test system: not given
Test: not given
Settings: not given

| melting point | SMILES |
| --- | --- |
| 172.7 to 175.2 °C | CCC(c1ccc(Cl)c(Cl)c1)n1c(S)nc(C(=O)OC(C)(C)C)c1C#N (centres unmarked) [Compound 78] |
